Experimental findings from patent publication US12539284B2, “Aminoxy acid-based anti-cancer stem cell compounds and methods thereof” (Westlake University, priority 2019, dated 2026) are described below.

“Also recorded” adds a separate entry of the source. Where two headings read alike, the source gives them in different places.

One assay relates to SKOV3 CSCs (SKOV3 SP). In words: Cell viability (CellTiter-Glo) on SKOV3 spheres (CSCs). The conditions noted are these: read-out: IC50 Cancer Stem Cell SKOV3 SP. The class given is cell-based, human. The method, then:
(§1) Cell Cultures Human ovarian carcinoma cell lines HEY A8 and SKOV3 were gifts from Professor Alice Wong's group (The University of Hong Kong). Cells were grown in Dulbecco's Modified Eagle (DMEM) medium supplemented with 10% FBS and 1% penicillin/streptomycin at 37° C. in a humidified atmosphere containing […] CO2. Isolation and culture of spheres were performed in serum-free stem-cell-selective condition as described in literature Ip etl. Oncogene 2014, 5, 9133-9149. Briefly, 1-2 weeks after plating, non-adherent spherical clusters of cells could be observed and were separated from single cells by low speed centrifugation. After 8th to 10th passages, the non-adherent spherical clusters of cells appeared as distinct spheres. Using this selection condition, HEY A8 spheres (HEY A8 SP) or SKOV3 spheres (SKOV3 SP) could be enzymatically dissociated and reformed into spheres within 3 days under stem-cell-selective condition. To allow differentiation, dissociated sphere cells were plated on tissue culture plates in medium (MCDB 105:M199=1:1) supplemented with 10% FBS and 1% PS.
HEY A8 SP cells or SKOV3 SP cells (5×10^4) were plated in triplicate in 10 mL serum-free MCDB105 medium in 100-mm Petri dish for 7 days to form spheres. […] After that, the reagent was transferred into 96-well plates and cell viability was measured using a microplate reader (SpectraMax 340PC 384, Molecular Devices).
A general note: Cellular ATP, detected with luciferase, serves as a proxy for viable cell number.

Assay [1] concerns HEY A8 cancer cells. In words: Cell viability (CellTiter-Glo) on adherent HEY A8 cancer cells. The class given is cell-based, human. As to conditions: read-out: IC50 Cancer Cell HeyA8. The method, then: as §1
HEY A8 or SKOV3 cancer Cells were plated in triplicate in 0.1 mL full medium in 96-well plates for 24 h. After that, the medium was changed to the fresh prepared medium with various concentrations of compounds. Cells were incubated for another 48 h. Then the cell viability was measured by CellTiter-Glo® Luminescent Cell Viability reagent according to the manufacture's instruction. The luminescence at 550 nm was measured using a microplate reader (SpectraMax 340PC 384, Molecular Devices).

The next assay concerns HEY A8 cells. In words: Sphere formation in suspension culture after treatment. The class given is cell-based, human. The conditions noted are these: 15 or 30 μM for 48 h, 3 days recovery, 5 days sphere formation. As to the method: Hey A8 cells were treated with compounds DMSO sff-2-112 (“Example 1”) or sff-2-132 (“Example 4”) at the concentration of 15 or 30 μM for 48 h. Then cells were allowed to recover and grow in full medium in cell culture dishes for 3 days. After that, cells at the density of 5×10^4 cells/mL were transferred into low attachment dishes for 5 days to allow sphere formation. The number of spheres in each dish were counted.

For assay [2], the system named is HEY A8 CSCs. Description: In vivo tumor seeding ability of pretreated HEY A8 CSCs. As to conditions: CSCs pretreated 2 days in vitro, 10^6 cells injected subcutaneously in mice, 25 days. The method, then:
In vivo tumor seeding ability of cells after treatment with compound sff-2-112 (“Example 1”) or sff-2-132 (“Example 4”) was evaluated. Taxol was used as a negative control. For this experiment, HEY A8 CSCs were pretreated with sff-2-112 (“Example 1”), sff-2-132 (“Example 4”) or Taxol for 2 days in suspension medium, respectively. Then cells were allowed to proliferate in full medium in the absence of drugs for 10 days. After that, 10^6 cells were injected into mice subcutaneously. Tumor size was measured for 25 days after injection.

Assay [3] has as its system HEY A8 CSCs. In words: Apoptosis, Annexin V / PI flow cytometry, CSCs. The class given is cell-based, human. As to conditions: 5 μM, 2 days; DMSO 4.92%. As to the method:
A suspension of HEY A8 cells at the concentration of 5×10^4 cells/mL in DMEM medium were seeded into 60-mm cell culture dishes. Cells were incubated at 37° C. in a humidified atmosphere containing 5% CO2 for 24 h followed by the addition of 4 mL fresh medium or medium containing compound sff-2-112 (“Example 1”) or sff-2-132 (“Example 4”) at different concentration. Medium containing 0.1% DMSO was used as negative control. After 2 days, the medium was aspirated and cells were washed with cold PBS twice, and then stained with PI and Annexin V according to the manufacture's instruction (Dead Cell Apoptosis Kit with Annexin V Alexa Fluor™ 488 & Propidium Iodide, Thermo Fisher). Cells were analyzed by flow cytometry (BD FACS CantoII Analyzer).
A general note: In flow cytometry, cells or beads pass a laser one at a time.

The subject of assay [4] is HEY A8 cancer cells. In words: Apoptosis, Annexin V / PI flow cytometry, cancer cells. As to conditions: 30 μM, 2 days. The class given is cell-based, human. The method, then:
A suspension of HEY A8 cells at the concentration of 5×10^4 cells/mL in DMEM medium were seeded into 60-mm cell culture dishes. Cells were incubated at 37° C. in a humidified atmosphere containing 5% CO2 for 24 h followed by the addition of 4 mL fresh medium or medium containing compound sff-2-112 (“Example 1”) or sff-2-132 (“Example 4”) at different concentration. […] After 2 days, the medium was aspirated and cells were washed with cold PBS twice, and then stained with PI and Annexin V according to the manufacture's instruction (Dead Cell Apoptosis Kit with Annexin V Alexa Fluor™ 488 & Propidium Iodide, Thermo Fisher). Cells were analyzed by flow cytometry (BD FACS CantoII Analyzer).

Assay [5] concerns HEY A8 CSCs. In words: Immunoblotting of apoptosis associated proteins PARP, Caspase 3, Caspase 9. The class given is cell-based, human. As to conditions: 48 h; CSCs at 10-fold lower concentration than cancer cells. The method, then: For immunostaining experiment, cells were treated with compound sff-2-112 (“Example 1”) or compound sff-2-132 (“Example 4”) at different concentration for 48 h, then washed twice with PBS buffer and lysed with 2×SDS buffer with 0.1% Benzonase. Protein extracts were quantified by Pierce BCA Protein Assay Kit with a Nanodrop 2000 (Thermo Fisher Scientific) according to the manufacture's instruction. Protein lysates (˜50 μg/lane) were resolved by SDS-PAGE and transferred onto PVDF membranes. Membranes were incubated with membrane blocking solution (Thermo Fisher Scientific) for 1 h. The blots were then probed with the relevant primary antibodies in blocking solution at 4° C. overnight with gentle agitation. Membranes were washed with 0.1% Tween 20/TBS for 5 min three times and were incubated with Horseradish Peroxidase (HRP) conjugated secondary antibodies for 1 h at room temperature. Antigens were detected by SuperSignal West Pico PLUS Chemiluminescent Substrate (Thermo Fisher Scientific). Imaging was performed using a ChemiDoc™ XRS+ System (Bio-Rad).
(In general: In western blotting, separated proteins are transferred to a membrane and probed.)

In assay [6] the test system is HEY A8 CSCs. Description: Immunoblotting of autophagy associated proteins P62 and LC3. The assay is classed as cell-based, human. As to conditions: 24 h; CSCs at 10-fold lower concentration than cancer cells. As to the method:
HEY A8 cancer cells and CSCs were treated with compound sff-2-112 (“Example 1”) or sff-2-132 (“Example 4”) for 24 h. Then cells were washed twice with PBS buffer and lysed for immuno-staining. The immunostaining methods were as same as it described in Example 10.

As a reminder, the IC50 is the concentration needed to halve the response being measured. As for `CC(C)(C)OC(=O)[C@@H](COCc1ccccc1)ONC(=O)c1cc(C(F)(F)F)cc(C(F)(F)F)c1` [sff-2-132], the IC50 with SKOV3 CSCs (SKOV3 SP) (Homo sapiens, SK-OV-3, 48 h incubation) was found to be 1 ± 0.9 µM; with HEY A8 cancer cells [1] (Homo sapiens, HEY A8, 48 h incubation), 52.9 ± 1.9 µM. For the same molecule, in the assay with HEY A8 cells, the “sphere forming ability / number of spheres relative to controls” value is on record as “significant decrease in the number of spheres; also recorded: significantly reduced sphere forming ability”. Further, in the assay on HEY A8 CSCs [2], the “tumor-seeding ability / tumor size of pretreated cells” value is on record as “significant decrease in tumor-seeding ability; also recorded: significantly decreased tumor size”. Besides, the “Annexin V positive cells, CSCs” value in the assay on HEY A8 CSCs [3] came out at 30.4%. In addition, the “Annexin V positive cells, cancer cells” value in the assay on HEY A8 cancer cells [4] is 1.30%. Besides, the “activation of PARP1, Caspase 3 and Caspase 9” value with HEY A8 CSCs [5] is “activation of protein PARP1, Caspase 3 and Caspase 9 was also observed in CSCs”. For the same molecule, in the assay on HEY A8 CSCs [6], the “LC3-II and p62 levels (autophagy suppression)” value was “Increased levels of both LC3-II and p62 in CSCs”.
For the molecule `O=C(NO[C@H](COCc1ccccc1)C(=O)Nc1ccccc1)c1cc(C(F)(F)F)cc(C(F)(F)F)c1` [sff-2-112], the IC50 came out at 0.9 ± 0.9 µM in the assay on SKOV3 CSCs (SKOV3 SP) (48 h incubation) and 23.4 ± 2.1 µM in the assay on HEY A8 cancer cells [1] (48 h incubation). The “sphere forming ability / number of spheres relative to controls” value with HEY A8 cells is on record as “significant decrease in the number of spheres; also recorded: significantly reduced sphere forming ability”. Moreover, in the assay with HEY A8 CSCs [2], the “tumor-seeding ability / tumor size of pretreated cells” value is listed as “significant decrease in tumor-seeding ability; also recorded: significantly decreased tumor size”. The “Annexin V positive cells, CSCs” value in the assay on HEY A8 CSCs [3] is listed as 21.0%. Also, the “Annexin V positive cells, cancer cells” value in the assay with HEY A8 cancer cells [4] was 8.21%. In addition, in the assay with HEY A8 CSCs [5], the “activation of PARP1, Caspase 3 and Caspase 9” value was “activation of protein PARP1, Caspase 3 and Caspase 9 was also observed in CSCs”. Also, the “LC3-II and p62 levels (autophagy suppression)” value in the assay with HEY A8 CSCs [6] was “Increased levels of both LC3-II and p62 in CSCs”.
